Where “and” joins values, the source holds several entries; their conditions need not be identical. Equal entries are not always repeated.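 Each compound was tested at five concentrations against cells in 96-well plates for 48 hours. The concentration for 50% growth inhibition is given as GI50. TGI marks complete inhibition of growth.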
Legend:
Experiment in all cases: NCI tumour cell line growth inhibition, 48 h
XF 498 CNS = system: XF 498 CNS
SNB-78 CNS = system: SNB-78 CNS
DLD-1 colon = system: DLD-1 colon
KM20L2 colon = system: KM20L2 colon
DMS 273 small cell lung = system: DMS 273 small cell lung
M19-MEL melanoma = system: M19-MEL melanoma
HOP-18 NSCLC = system: HOP-18 NSCLC
MDA-N = system: MDA-N
P388/ADR leukemia = system: P388/ADR leukemia
SN12K1 renal = system: SN12K1 renal
P388 leukemia = system: P388 leukemia

| SMILES | TGI (XF 498 CNS) | TGI (SNB-78 CNS) | TGI (DLD-1 colon) | TGI (KM20L2 colon) [µM] | TGI (DMS 273 small cell lung) | TGI (M19-MEL melanoma) | TGI (HOP-18 NSCLC) | TGI (MDA-N) [µM] | also measured |
| --- | --- | --- | --- | --- | --- | --- | --- | --- | --- |
| COC(=O)C1CCC2(CC1)NC(=O)NC2=O (stereo not given) | > 100 µM | > 100 µM | > 100 µM | > 100 | > 100 µM | > 100 µM | > 100 µM |  |  |
| Cc1nn(C(=O)CC(=O)Nc2ccccc2Cl)c(C)c1N=Nc1ccccc1Cl | > 100 µM | > 100 µM | > 100 µM | > 100 | > 100 µM | > 100 µM | > 100 µM |  |  |
| O=C(Nc1cccc(Cl)c1)c1cc2cc(N=Nc3ccc(Br)cc3)ccc2oc1=O | > 100 µM | > 100 µM | > 100 µM | > 100 | 55.6 µM |  | > 100 µM |  |  |
| NC(=O)NOCC1NC(=O)NC1=O (stereo not given) |  |  |  |  |  |  |  | > 100 |  |
| Cn1c(N)cc(=O)nc1N |  |  |  |  |  |  |  | > 100 |  |
| C/C=C\C(C)=C/C(C)C(=O)CC(O)CC1CC(=O)NC(=O)C1 (stereo not given) |  |  |  |  |  |  |  | > 100 |  |
| O=C(NC(c1ccccc1)C(O)C(=O)OCc1ccc2c(c1)C(=O)c1ccccc1C2=O)c1ccccc1 (stereo not given) | 35.9 µM | > 92.4 µM | > 100 µM | > 100 | > 100 µM | > 100 µM | 10.5 µM | > 100 | TGI (P388/ADR leukemia): > 100 µM; TGI (SN12K1 renal): 3.27 µM; TGI (P388 leukemia): > 100 µM |
| O=C1OC2C(O)COC2(OCc2c[nH]c3ccccc23)C1O (stereo not given) (tested in a mixture with another compound) | > 100 µM | > 100 µM | > 100 µM | > 100 | > 100 µM | > 100 µM | > 100 µM |  |  |
| COc1ccc2nccc(C3OC(=O)N4CCC(=O)CC34)c2c1 (stereo not given) | > 100 µM | > 100 µM |  | > 100 |  | > 100 µM |  |  |  |
| CCCC1C2=C(C(=O)OC2=O)C2C(CC)CC3=C(C(=O)OC3=O)C12 (stereo not given) |  |  |  |  |  |  |  | > 100 |  |
| Cc1cn2cc(-c3ccncc3)nc2s1 | > 100 µM | > 100 µM | > 100 µM | > 100 | > 100 µM | > 100 µM | > 100 µM |  |  |
| COc1ccc(/C=C(\NC(=O)c2ccccc2)c2nc3ccccc3[nH]2)cc1 | 46.2 µM |  | > 100 µM | > 100 | > 100 µM | > 100 µM |  |  |  |
| Cc1ccc(SCN2CCCCC2)cc1 (tested in a mixture with another compound) |  |  |  |  |  |  |  | 22.7 |  |
| CCc1cccc(C(C)C)c1C1C(=O)C(=O)N(c2nc3ccccc3s2)C(=O)C1=O |  | > 100 µM | > 100 µM | > 100 | > 100 µM | > 100 µM | > 100 µM |  |  |
| O=S(O)CCCSSCCCCSSCCCS(=O)O | > 100 µM | > 100 µM | > 100 µM | > 100 | > 100 µM | > 100 µM | > 100 µM |  |  |
| O=C1c2ccccc2CC1C1(O)C(=O)Nc2c(Cl)cc(Cl)cc21 (stereo not given) | > 100 µM | > 100 µM | > 100 µM | > 100 | > 100 µM |  | > 100 µM |  |  |
| O=C(CN1C(=O)c2ccccc2C1=O)NC1(C(=O)O)CCCC1 |  |  |  |  |  |  |  | > 100 |  |
| CCN(CC)CC(C(=O)Nc1c(C)cccc1C)/C(C)=N/NC(N)=S (stereo not given) | > 100 µM | > 100 µM | > 100 µM | > 100 | > 100 µM | > 100 µM |  |  |  |

| SMILES | TGI (XF 498 CNS) | TGI (SNB-78 CNS) | TGI (DLD-1 colon) | TGI (KM20L2 colon) [µM] | TGI (DMS 273 small cell lung) | TGI (M19-MEL melanoma) | TGI (HOP-18 NSCLC) | TGI (MDA-N) [µM] | also measured |
| --- | --- | --- | --- | --- | --- | --- | --- | --- | --- |
| O=c1c2ccccc2nc(-c2ccccc2Cl)n1NC1OC(CO)C(O)C(O)C1O (stereo not given) | > 100 µM | > 100 µM | > 100 µM | > 100 | > 100 µM | > 100 µM | > 100 µM |  |  |
| COc1cc(C2C(C(=O)Nc3ccc(Cl)c(Cl)c3)=C(C)NC(C)=C2C(=O)Nc2ccc(Cl)c(Cl)c2)ccc1O | 33.1 µM | 53.5 µM | 22.4 µM | 54.7 |  | 32 µM |  |  |  |
| CC1CCCC2(O1)OC1CC(=O)OC1C1=C2C(=O)c2ccccc2C1=O (stereo not given) | 8.42 µM | 4.85 µM |  | 16 | 3.82 µM | 7.36 µM |  |  |  |
| Nc1nc(N)c2nn(-c3ccc(C(=O)O)cc3)nc2n1 |  |  |  |  |  |  |  | > 100 |  |
| O=[N+]([O-])c1ccc(-c2ccc(C3=Nn4c(nnc4-c4ccc(Cl)cc4)SC3)o2)cc1 | 60.1 µM |  | > 100 µM | > 100 | > 100 µM | > 100 µM | > 100 µM |  |  |
| O=C1c2cccc3cc4ccccc4c(c23)C(=O)N1CCCNCCNCCCN1C(=O)c2cccc3cc4ccccc4c(c23)C1=O |  |  |  |  |  |  |  | 1.82 |  |
| COc1cccc2c1C(=N)c1c(O)c3c(c(O)c1C2=O)C[C@@](O)(C(C)=O)C[C@@H]3OC1CC(N)C(O)C(C)O1 (stereo not given in full) | 2.26 µM and 2.27 µM | 8.68 µM and 18.9 µM | 5.7 µM and 14.9 µM |  | 1.65 µM and 1.86 µM | 2.15 µM and 2.64 µM | 3.48 µM and 2.56 µM | 10.4 | GI50 (P388/ADR leukemia): 13.6 µM; TGI (P388/ADR leukemia): 51.7 µM; TGI (SN12K1 renal): 3.05 µM; GI50 (P388 leukemia): 0.0425 µM; GI50 (MDA-N): 1.15 µM |
| COc1cc(OC)c(-c2oc3ccccc3c(=O)c2O)c(OC)c1 |  |  |  |  |  |  |  | 2.93 |  |
| S=C(N/N=C/c1ccccc1)NC1CC(c2ccccc2)Oc2ccccc21 (stereo not given) | > 100 µM | 96.1 µM | > 100 µM |  | > 100 µM | > 100 µM |  |  |  |
| O=C1C2=C(Nc3cc([N+](=O)[O-])ccc3N2)OC1c1c[nH]c2ccc(COc3ccccc3)cc12 (stereo not given) |  |  |  |  |  |  |  | > 100 |  |
| Cn1c(N)c(N=Nc2ccc(S(N)(=O)=O)cc2)c(=O)n(C)c1=O |  |  |  |  |  |  |  | > 100 |  |
| COCC(O)CN1C(N)=NC(O)C1O (stereo not given) |  | > 100 µM | > 100 µM | > 100 |  | > 100 µM | > 100 µM |  |  |
| Cc1nc2c(=O)n(C)c(=O)nc-2n(-c2ccc(Cl)cc2)c1C | > 100 µM | > 100 µM | > 100 µM | > 100 | > 100 µM | > 100 µM | > 100 µM |  |  |
| C[CH2][Ge]1([CH2]C)[CH2]CC2(CCN(CCCN(C)C)C2)C[CH2]1 | 1.45 µM |  |  | 11 | 4.57 µM | 2.63 µM | 8.25 µM | 1.02 | GI50 (P388/ADR leukemia): 1.02 µM; TGI (P388/ADR leukemia): 1.87 µM; GI50 (XF 498 CNS): 1.16 µM; GI50 (SN12K1 renal): 1.97 µM; TGI (SN12K1 renal): 4.38 µM; GI50 (KM20L2 colon): 2.94 µM; GI50 (DMS 273 small cell lung): 2.4 µM; GI50 (M19-MEL melanoma): 1.47 µM; GI50 (HOP-18 NSCLC): 3.19 µM; GI50 (P388 leukemia): 1.34 µM; TGI (P388 leukemia): 2.7 µM; GI50 (MDA-N): 0.369 µM |
| O=C1[C@@H]2C3C=CC([C@H]4C(=O)N(CO)C(=O)[C@@H]34)[C@@H]2C(=O)N1CO | > 100 µM | > 100 µM | > 74.1 µM | > 31.6 | > 57.3 µM | > 58.8 µM | 86.4 µM |  |  |
| CC(C)(O)C1CC(=O)C(C)(C2C(O)CC3(C)C4CC=C5C(CCC(O)C5(C)C)C4(C)C(=O)CC23C)O1 (stereo not given) |  |  |  |  |  |  |  | > 100 |  |
| Cc1ccc(S(=O)(=O)NC2(C=O)CCC(C(C)(C)C)CC2)cc1 (stereo not given) | > 100 µM | > 100 µM | > 100 µM | 75.4 | > 100 µM | 73.8 µM | > 100 µM |  |  |
| CCCCCC1C2C(=O)NC(=O)C1C(=O)NC2=O (stereo not given) | > 100 µM |  | > 100 µM | > 100 | > 100 µM | > 100 µM |  |  |  |

— PubChem BioAssay (NCI)
